ChEMBL document CHEMBL1817586, “N-(1,3-Diaryl-3-oxopropyl)amides as a new template for xanthine oxidase inhibitors” (Bioorg Med Chem, 2011)

What was measured:
[1] = target: Xanthine dehydrogenase/oxidase (Bos taurus, UniProt P80457); assay: Inhibition of bovine milk xanthine oxidase assessed as decrease of uric acid formation preincubated for 5 mins by UV-visible spectrophotometric analysis
Mus musculus [2] = assay: Antihyperuricemic activity in Swiss mouse assessed as decrease of potassium oxonate-induced uric acid level in serum at 10 mg/kg, ip after 3 hrs by HPLC analysis (reference value: 7.80 +/- 0.34 uM); assay type: functional; conditions: route intraperitoneal
Mus musculus [3] = assay: Antihyperuricemic activity in Swiss mouse assessed as decrease of potassium oxonate-induced uric acid level in serum at 20 mg/kg, ip after 3 hrs by HPLC analysis (reference value: 7.80 +/- 0.34 uM); assay type: functional; conditions: route intraperitoneal
Mus musculus [4] = assay: Antihyperuricemic activity in Swiss mouse assessed as decrease of potassium oxonate-induced uric acid level in serum at 50 mg/kg, ip after 3 hrs by HPLC analysis (reference value: 7.80 +/- 0.34 uM); assay type: functional; conditions: route intraperitoneal

Xanthine dehydrogenase/oxidase, sequence (P80457 whole entry): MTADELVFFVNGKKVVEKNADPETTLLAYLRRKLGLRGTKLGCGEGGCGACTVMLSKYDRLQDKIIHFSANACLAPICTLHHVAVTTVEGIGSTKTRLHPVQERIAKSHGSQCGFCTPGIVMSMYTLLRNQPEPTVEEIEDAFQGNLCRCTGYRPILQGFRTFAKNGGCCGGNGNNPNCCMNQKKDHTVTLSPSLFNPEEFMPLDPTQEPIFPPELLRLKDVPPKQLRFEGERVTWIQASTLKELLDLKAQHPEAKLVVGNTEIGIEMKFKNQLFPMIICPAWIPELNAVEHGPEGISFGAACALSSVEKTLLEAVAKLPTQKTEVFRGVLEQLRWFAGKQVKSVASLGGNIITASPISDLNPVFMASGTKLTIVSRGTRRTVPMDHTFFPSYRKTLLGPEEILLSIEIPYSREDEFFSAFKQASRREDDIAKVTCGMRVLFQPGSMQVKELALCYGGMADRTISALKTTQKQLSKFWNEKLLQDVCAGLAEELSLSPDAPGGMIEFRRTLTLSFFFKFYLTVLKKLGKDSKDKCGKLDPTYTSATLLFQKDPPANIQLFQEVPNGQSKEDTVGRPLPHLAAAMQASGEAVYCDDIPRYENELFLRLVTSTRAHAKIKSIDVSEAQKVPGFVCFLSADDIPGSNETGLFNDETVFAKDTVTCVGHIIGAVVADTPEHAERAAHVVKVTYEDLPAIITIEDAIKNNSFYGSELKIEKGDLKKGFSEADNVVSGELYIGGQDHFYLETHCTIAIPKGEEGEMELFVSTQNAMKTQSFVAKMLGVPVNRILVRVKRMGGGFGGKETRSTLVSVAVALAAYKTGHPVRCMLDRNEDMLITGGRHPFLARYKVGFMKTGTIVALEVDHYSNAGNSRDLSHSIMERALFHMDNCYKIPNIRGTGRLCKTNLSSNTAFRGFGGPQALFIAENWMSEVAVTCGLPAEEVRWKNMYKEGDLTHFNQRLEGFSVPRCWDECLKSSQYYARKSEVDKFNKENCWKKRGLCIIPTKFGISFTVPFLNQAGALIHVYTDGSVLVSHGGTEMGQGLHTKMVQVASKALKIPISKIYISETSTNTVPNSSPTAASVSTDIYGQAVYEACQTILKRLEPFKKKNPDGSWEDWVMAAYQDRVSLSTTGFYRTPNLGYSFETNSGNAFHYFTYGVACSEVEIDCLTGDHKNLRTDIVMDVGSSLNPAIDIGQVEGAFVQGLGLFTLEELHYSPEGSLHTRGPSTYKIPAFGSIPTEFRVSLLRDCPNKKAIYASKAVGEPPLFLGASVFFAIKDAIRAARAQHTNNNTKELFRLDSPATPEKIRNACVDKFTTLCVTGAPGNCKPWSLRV

Row | Compound | IC50 [1] | other results
1 | COc1cc(C(CC(=O)c2ccccc2)NC(C)=O)cc(OC)c1OC (centres undefined) | 48.2 µM | –
2 | COc1ccc(OC)c(C(CC(=O)c2ccccc2)NC(C)=O)c1 (centres undefined) | 44 µM | –
3 | CC(=O)NC(CC(=O)c1cccc2ccccc12)c1cccc([N+](=O)[O-])c1 (centres undefined) | 44 µM | –
4 | CC(=O)NC(/C=C/c1ccccc1)CC(=O)c1ccccc1 (centres undefined) | 78.3 µM | –
5 | CC(=O)NC(CC(=O)c1ccccc1)c1cccs1 (centres undefined) | 65 µM | –
6 | CC(=O)NC(CC(=O)c1ccccc1)c1cccc2ccccc12 (centres undefined) | 59 µM | –
7 | CC(=O)NC(CC(=O)c1cccc2ccccc12)c1cccc(Br)c1 (centres undefined) | 42.2 µM | –
8 | CC(=O)NC(CC(=O)c1ccco1)c1ccccc1 (centres undefined) | 26 µM | –
9 | O=C(CC(NC(=O)c1ccccc1)c1cccc([N+](=O)[O-])c1)c1ccccc1 (centres undefined) | 43.6 µM | –
10 | CC(=O)NC(CC(=O)c1ccccc1)c1ccc(Cl)cc1 (centres undefined) | 27.1 µM | –
11 | CC(=O)NC(CC(=O)c1cccs1)c1ccccc1 (centres undefined) | 27 µM | –
12 | CC(=O)NC(CC(=O)c1ccccc1)c1ccc([N+](=O)[O-])cc1 (centres undefined) | 28.5 µM | –
13 | CC(=O)NC(CC(=O)c1ccc(Cl)cc1)c1ccc(C)cc1 (centres undefined) | 44.6 µM | –
14 | COc1ccc(OC)c(C(CC(=O)c2cc(Cl)cs2)NC(C)=O)c1 (centres undefined) | 20 µM | –
15 | Oc1ncnc2[nH]ncc12 [ALLOPURINOL] | – | Activity (Mus musculus [2]): 3.19 µM; Activity (Mus musculus [3]): 2.93 µM; Activity (Mus musculus [4]): 2.17 µM
16 | CC(=O)NC(CC(=O)c1cccc2ccccc12)c1ccccc1 (centres undefined) | 40 µM | –
17 | CC(=O)NC(CC(=O)c1ccccc1)c1ccc2ccccc2c1 (centres undefined) | 53 µM | –
18 | CC(=O)NC(CC(=O)c1ccc2ccccc2c1)c1ccccc1 (centres undefined) | 8.5 µM | Activity (Mus musculus [2]): 4.26 µM; Activity (Mus musculus [3]): 4.22 µM; Activity (Mus musculus [4]): 4.14 µM
19 | COc1ccc(C(CC(=O)c2ccccc2)NC(C)=O)c(OC)c1OC (centres undefined) | 46.1 µM | –
20 | CC(=O)NC(CC(=O)c1ccccc1)c1cccc([N+](=O)[O-])c1 (centres undefined) | 26.2 µM | –
21 | CC(=O)NC(CC(=O)c1cc(Cl)cs1)c1ccc(Cl)cc1 (centres undefined) | 22 µM | –
22 | COc1ccc(C(CC(=O)c2ccccc2)NC(C)=O)cc1 (centres undefined) | 45 µM | –

Row | Compound | IC50 [1] | other results
23 | CC(=O)Nc1cccc(C(=O)CC(NC(C)=O)c2cccc([N+](=O)[O-])c2)c1 (centres undefined) | 32 µM | –
24 | COc1ccc(OC)c(C(CC(=O)c2cccc(NC(C)=O)c2)NC(C)=O)c1 (centres undefined) | 43.2 µM | –
25 | CC(=O)NC(CC(=O)c1ccc(Cl)cc1)c1ccccc1 (centres undefined) | 42 µM | –
26 | CC(=O)Nc1cccc(C(=O)CC(NC(C)=O)c2ccc(Cl)cc2)c1 (centres undefined) | 41.8 µM | –
27 | CC(=O)NC(CC(=O)c1ccco1)c1cccc([N+](=O)[O-])c1 (centres undefined) | 15.2 µM | Activity (Mus musculus [2]): 7.13 µM; Activity (Mus musculus [3]): 7.01 µM; Activity (Mus musculus [4]): 6.98 µM
28 | CC(=O)NC(CC(=O)c1ccccc1)c1ccccc1 (centres undefined) | 38.3 µM | –
29 | COc1ccc(C(CC(=O)c2ccccc2)NC(C)=O)cc1OC (centres undefined) | 44.3 µM | –
30 | CC(=O)NC(CC(=O)c1ccccc1)c1ccc(C#N)cc1 (centres undefined) | 29 µM | –
31 | CC(=O)NC(CC(=O)c1ccc(Cl)cc1)c1ccc(Cl)cc1 (centres undefined) | 41 µM | –
32 | O=C(CC(NC(=O)c1ccccc1)c1ccccc1)c1ccccc1 (centres undefined) | 58.1 µM | –
33 | CC(=O)NC(CC(=O)c1ccc([N+](=O)[O-])cc1)c1ccc(Cl)cc1 (centres undefined) | 45.4 µM | –
34 | CC(=O)NC(CC(=O)c1cc(C)sc1C)c1ccc(Cl)cc1 (centres undefined) | 21.7 µM | –
35 | CC(=O)NC(CC(=O)c1ccc([N+](=O)[O-])cc1)c1ccccc1 (centres undefined) | 48 µM | –
36 | COc1ccc(C(CC(=O)c2ccc([N+](=O)[O-])cc2)NC(C)=O)cc1 (centres undefined) | 52.6 µM | –
37 | CC(=O)NC(CC(=O)c1ccc2ccccc2c1)c1cccc(Br)c1 (centres undefined) | 2.45 µM | Activity (Mus musculus [2]): 3.21 µM; Activity (Mus musculus [3]): 2.96 µM; Activity (Mus musculus [4]): 2.18 µM
38 | CC(=O)NC(CC(=O)c1ccccc1)c1cccc(Br)c1 (centres undefined) | 28.1 µM | –
39 | C[N+](=O)C(CC(=O)c1ccccc1)c1c2ccccc2cc2ccccc12 (centres undefined) | 91.6 µM | –
40 | CC(=O)NC(CC(=O)c1cc(C)sc1C)c1cccc([N+](=O)[O-])c1 (centres undefined) | 19.8 µM | –
41 | CC(=O)NC(CC(=O)c1ccccc1)c1ccccc1[N+](=O)[O-] (centres undefined) | 32.3 µM | –
42 | CC(=O)NC(CC(=O)c1ccccc1)c1ccco1 (centres undefined) | 63 µM | –
43 | CC(=O)Nc1cccc(C(=O)CC(/C=C/c2ccccc2)NC(C)=O)c1 (centres undefined) | 69.2 µM | –
